In ChEMBL document CHEMBL1141493, “Synthesis and structure-activity relationships of heteroaryl substituted-3,4-diamino-3-cyclobut-3-ene-1,2-dione CXCR2/CXCR1 receptor antagonists” (Bioorg Med Chem Lett, 2008):
pIC50: −log10 of the molar value. Activity calls are given as the source filed them. The rule behind the calls is not given here.

Experiments:
[1] = target: T1, C-X-C chemokine receptor type 2 (Homo sapiens, UniProt P25025); test: Inhibition of CXCR2
T1 sequence (P25025 whole entry): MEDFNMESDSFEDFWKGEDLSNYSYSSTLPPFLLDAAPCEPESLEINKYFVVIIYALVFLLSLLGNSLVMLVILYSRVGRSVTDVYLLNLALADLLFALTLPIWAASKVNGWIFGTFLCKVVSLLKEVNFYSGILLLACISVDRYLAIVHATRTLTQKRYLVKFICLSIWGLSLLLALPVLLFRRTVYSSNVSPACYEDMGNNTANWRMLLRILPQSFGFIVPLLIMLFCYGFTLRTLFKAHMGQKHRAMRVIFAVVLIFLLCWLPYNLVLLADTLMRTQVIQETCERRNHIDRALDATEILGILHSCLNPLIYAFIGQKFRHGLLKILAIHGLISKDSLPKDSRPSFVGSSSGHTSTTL

[2] = target: T2, C-X-C chemokine receptor type 1 (Homo sapiens, UniProt P25024); test: Inhibition of CXCR1
T2 sequence (P25024 whole entry): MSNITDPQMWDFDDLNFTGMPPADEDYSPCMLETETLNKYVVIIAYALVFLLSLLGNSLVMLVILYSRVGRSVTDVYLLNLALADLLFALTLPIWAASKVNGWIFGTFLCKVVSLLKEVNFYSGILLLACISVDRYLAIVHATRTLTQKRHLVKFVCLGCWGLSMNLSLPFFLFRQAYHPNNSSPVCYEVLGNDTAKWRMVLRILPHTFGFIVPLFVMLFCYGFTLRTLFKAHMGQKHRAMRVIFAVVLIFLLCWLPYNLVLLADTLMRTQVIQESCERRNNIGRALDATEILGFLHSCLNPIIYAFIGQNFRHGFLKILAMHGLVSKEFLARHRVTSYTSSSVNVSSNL

[3] = target: T3, C-X-C chemokine receptor type 1 (Homo sapiens) (UniProt P25024); test: Inhibition of CXCR1-mediated chemotaxis in Ba/F3 cells expressing human CXCR1 at >10000 nM; format: cell-based; conditions: BaF3
T3 sequence (whole entry): T2 sequence (P25024 whole entry)

[4] = AUC in rat at 10 mg/kg, po; format: ADME, organism-based; design: dose 10 mg/kg, route oral; conditions: plasma
[5] = target: T3, C-X-C chemokine receptor type 1 (Homo sapiens); test: Inhibition of CXCR1 at >10000 nM

Row | Structure (SMILES) | pIC50 [1] | pIC50 [2] | Activity [3] | AUC [4] | Activity [5]
1 | CCC(Nc1c(Nc2cccc(C(=O)N(C)C)c2O)c(=O)c1=O)c1cc2ccccc2o1 (stereo not given) | 8.46 | 6.39 |  |  | 
2 | CCC(Nc1c(Nc2cccc(C(=O)N(C)C)c2O)c(=O)c1=O)c1ccc(-c2cccc(Cl)c2)o1 (stereo not given) | 7.24 | 5.47 |  |  | 
3 | CCC(Nc1c(Nc2cccc(C(=O)N(C)C)c2O)c(=O)c1=O)c1ccncc1 (stereo not given) | 7.30 | 5.54 |  |  | 
4 | CCC(Nc1c(Nc2cccc(C(=O)N(C)C)c2O)c(=O)c1=O)c1ccc(C(F)F)o1 (stereo not given) | 8.17 | 6.25 |  |  | 
5 | CCC(Nc1c(Nc2cccc(C(=O)N(C)C)c2O)c(=O)c1=O)c1ccoc1 (stereo not given) | 8.10 | 6.09 |  |  | 
6 | CCC(Nc1c(Nc2cccc(C(=O)N(C)C)c2O)c(=O)c1=O)c1ccc(Cl)o1 (stereo not given) | 8.32 | 6.56 |  |  | 
7 | CC[C@@H](Nc1c(Nc2cccc(C(=O)N(C)C)c2O)c(=O)c1=O)c1cc(Cl)co1 | 8.42 | 7.21 |  | 21.5 µM·h | 
8 | CCC(Nc1c(Nc2cccc(C(=O)N(C)C)c2O)c(=O)c1=O)c1ccno1 (stereo not given) | 8.01 | 6.52 |  |  | 
9 | CCC(Nc1c(Nc2cccc(C(=O)N(C)C)c2O)c(=O)c1=O)c1cc(-c2ccncc2)co1 (stereo not given) | 8.02 | 6.28 |  |  | 
10 | CCC(Nc1c(Nc2cccc(C(=O)N(C)C)c2O)c(=O)c1=O)c1cc(Cl)co1 (stereo not given) | 8.35 | 7.00 |  |  | 
11 | CCC(Nc1c(Nc2cccc(C(=O)N(C)C)c2O)c(=O)c1=O)c1cccs1 (stereo not given) | 8.21 | 6.75 |  |  | 
12 | CC[C@@H](Nc1c(Nc2cccc(C(=O)N(C)C)c2O)c(=O)c1=O)c1ccc(Cl)o1 | 8.34 | 6.61 |  |  | 
13 | CCC(Nc1c(Nc2cccc(C(=O)N(C)C)c2O)c(=O)c1=O)c1cocn1 (stereo not given) | 7.96 | 6.09 |  |  | 
14 | CCC(Nc1c(Nc2cccc(C(=O)N(C)C)c2O)c(=O)c1=O)c1ccc(C(=O)N(C)C)o1 (stereo not given) | 6.77 |  |  |  | inactive
15 | CCC(Nc1c(Nc2cccc(C(=O)N(C)C)c2O)c(=O)c1=O)c1ccco1 (stereo not given) | 8.30 | 7.17 |  |  | 
16 | CCC(Nc1c(Nc2cccc(C(=O)N(C)C)c2O)c(=O)c1=O)c1cc(C)on1 (stereo not given) | 8.12 | 6.65 |  |  | 
17 | CCC(Nc1c(Nc2cccc(C(=O)N(C)C)c2O)c(=O)c1=O)c1cccn1C (stereo not given) | 6.09 |  |  |  | inactive

Continued by rising pIC50 [1], values first:

Row | pIC50 [1] | pIC50 [2] | Activity [3] | AUC [4] | Activity [5] | Structure (SMILES)
18 | 6.82 |  |  |  | inactive | CCC(Nc1c(Nc2cccc(C(=O)N(C)C)c2O)c(=O)c1=O)c1ccc(-c2ccccc2C(F)(F)F)o1 (stereo not given)
19 | 7.03 |  |  |  | inactive | CCC(Nc1c(Nc2cccc(C(=O)N(C)C)c2O)c(=O)c1=O)c1ccc(CN(C)C)o1 (stereo not given)
20 | 7.06 | 5.46 |  |  |  | CCC(Nc1c(Nc2cccc(C(=O)N(C)C)c2O)c(=O)c1=O)c1ccc(-c2cccc(C(F)(F)F)c2)o1 (stereo not given)
21 | 7.31 | 5.31 |  |  |  | CCC(Nc1c(Nc2cccc(C(=O)N(C)C)c2O)c(=O)c1=O)c1ccc(-c2ccccc2Cl)o1 (stereo not given)
22 | 7.68 | 5.86 |  |  |  | CCC(Nc1c(Nc2cccc(C(=O)N(C)C)c2O)c(=O)c1=O)c1sccc1Cl (stereo not given)
23 | 7.76 | 5.22 |  |  |  | CCC(Nc1c(Nc2cccc(C(=O)N(C)C)c2O)c(=O)c1=O)c1ccc(C(F)(F)F)o1 (stereo not given)
24 | 7.78 | 5.99 |  |  |  | CCC(Nc1c(Nc2cccc(C(=O)N(C)C)c2O)c(=O)c1=O)c1occc1Br (stereo not given)
25 | 8.01 | 6.15 |  |  |  | CCC(Nc1c(Nc2cccc(C(=O)N(C)C)c2O)c(=O)c1=O)c1nccs1 (stereo not given)
26 | 8.07 | 6.10 |  |  |  | CCC(Nc1c(Nc2cccc(C(=O)N(C)C)c2O)c(=O)c1=O)c1ncco1 (stereo not given)
27 | 8.09 | 6.66 |  |  |  | CCC(Nc1c(Nc2cccc(C(=O)N(C)C)c2O)c(=O)c1=O)c1cc(-c2ccsc2)co1 (stereo not given)
28 | 8.09 | 6.54 |  |  |  | CCC(Nc1c(Nc2cccc(C(=O)N(C)C)c2O)c(=O)c1=O)c1nc(C)no1 (stereo not given)
29 | 8.12 | 6.46 |  |  |  | CCC(Nc1c(Nc2cccc(C(=O)N(C)C)c2O)c(=O)c1=O)c1cc(-c2c(C)noc2C)co1 (stereo not given)
30 | 8.20 | 6.77 | inactive | 3.7 µM·h |  | CC[C@@H](Nc1c(Nc2cccc(C(=O)N(C)C)c2O)c(=O)c1=O)c1cc(C)on1
31 | 8.21 | 5.95 |  |  |  | CCC(Nc1c(Nc2cccc(C(=O)N(C)C)c2O)c(=O)c1=O)c1ccc(Cl)s1 (stereo not given)
32 | 8.21 | 6.82 |  |  |  | CCC(Nc1c(Nc2cccc(C(=O)N(C)C)c2O)c(=O)c1=O)c1cc(-c2ccccc2)co1 (stereo not given)
33 | 8.24 | 6.78 |  |  |  | CCC(Nc1c(Nc2cccc(C(=O)N(C)C)c2O)c(=O)c1=O)c1ccsc1 (stereo not given)
34 | 8.30 | 7.03 |  |  |  | CCC(Nc1c(Nc2cccc(C(=O)N(C)C)c2O)c(=O)c1=O)c1cc(Br)co1 (stereo not given)
35 | 8.33 | 6.33 |  |  |  | CCC(Nc1c(Nc2cccc(C(=O)N(C)C)c2O)c(=O)c1=O)c1ccc(Br)o1 (stereo not given)
36 | 8.39 | 6.07 |  |  |  | CCc1ccc(C(CC)Nc2c(Nc3cccc(C(=O)N(C)C)c3O)c(=O)c2=O)o1 (stereo not given)
37 | 8.46 | 7.26 |  | 33.4 µM·h |  | CC[C@@H](Nc1c(Nc2cccc(C(=O)N(C)C)c2O)c(=O)c1=O)c1cc(Br)co1
38 | 8.47 | 6.98 |  |  |  | CC[C@@H](Nc1c(Nc2cccc(C(=O)N(C)C)c2O)c(=O)c1=O)c1ccsc1
39 | 8.48 | 6.83 | inactive |  |  | CC[C@@H](Nc1c(Nc2cccc(C(=O)N(C)C)c2O)c(=O)c1=O)c1ccccn1
40 | 8.55 | 6.74 |  |  |  | CCC(Nc1c(Nc2cccc(C(=O)N(C)C)c2O)c(=O)c1=O)c1ccc(CO)o1 (stereo not given)
